ChEMBL document CHEMBL4368940, “Development of a novel NURR1/NOT agonist from hit to lead and candidate for the potential treatment of Parkinson's disease” (Bioorg Med Chem Lett, 2019)
Blank lines part the entries; values can stand above or below the molecule they belong to. The source made the active and inactive calls. The rule behind the calls is not given here.

How the values were obtained:
[1] = target: Nuclear receptor subfamily 4 group A member 2 (Mus musculus) (UniProt Q06219); experiment: (§1) Agonist activity at Nurr1 in mouse N2A cells harboring NBRE by luciferase reporter gene assay; type: cell-based
Sequence of Nuclear receptor subfamily 4 group A member 2 (Mus musculus) (Q06219 whole entry): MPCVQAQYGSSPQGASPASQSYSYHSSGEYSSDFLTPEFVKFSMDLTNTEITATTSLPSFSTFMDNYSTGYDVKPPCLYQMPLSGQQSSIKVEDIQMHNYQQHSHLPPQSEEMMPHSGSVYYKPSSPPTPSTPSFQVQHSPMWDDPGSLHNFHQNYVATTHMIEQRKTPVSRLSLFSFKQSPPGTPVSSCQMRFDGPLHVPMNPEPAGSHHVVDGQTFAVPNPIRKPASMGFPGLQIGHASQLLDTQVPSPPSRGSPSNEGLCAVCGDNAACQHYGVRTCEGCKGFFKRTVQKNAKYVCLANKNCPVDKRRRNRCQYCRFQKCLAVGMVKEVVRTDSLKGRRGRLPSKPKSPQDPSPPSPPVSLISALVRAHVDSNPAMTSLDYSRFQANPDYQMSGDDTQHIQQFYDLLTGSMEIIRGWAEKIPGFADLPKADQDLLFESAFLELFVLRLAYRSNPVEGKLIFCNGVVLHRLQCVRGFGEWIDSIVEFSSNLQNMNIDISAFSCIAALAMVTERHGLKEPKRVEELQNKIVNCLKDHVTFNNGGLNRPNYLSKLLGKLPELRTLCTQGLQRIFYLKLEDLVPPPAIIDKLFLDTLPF

[2] = target: Nuclear receptor subfamily 4 group A member 2 (Mus musculus, UniProt Q06219); experiment: as §1; type: cell-based
Sequence of Nuclear receptor subfamily 4 group A member 2 (Mus musculus, UniProt Q06219) (Q06219 whole entry, the tested form may be a part): as the sequence (Q06219 whole entry) above

[3] = target: Nuclear receptor subfamily 4 group A member 2 (Homo sapiens, UniProt P43354); experiment: Agonist activity at full-length Gal4-fused NOT (unknown origin) expressed in CHO cells by luciferase reporter gene assay; type: cell-based; details: for EC50: read-out: EC50
Sequence of Nuclear receptor subfamily 4 group A member 2 (Homo sapiens, UniProt P43354) (P43354 whole entry, the tested form may be a part): as the sequence (Q06219 whole entry) above, with S131T, S134G, D354E counted along it

[4] = target: Nuclear receptor subfamily 4 group A member 2 (Rattus norvegicus) (UniProt Q07917); experiment: Agonist activity at Nurr1 in rat mesencephalic primary neurons assessed as increase in tyrosine hydroxylase expression at 3 uM
Sequence of Nuclear receptor subfamily 4 group A member 2 (Rattus norvegicus) (Q07917 whole entry): as the sequence (Q06219 whole entry) above, with S134G, P182R counted along it

[5] = target: Nuclear receptor subfamily 4 group A member 2 (Mus musculus) (UniProt Q06219); experiment: Agonist activity at Nurr1 in mouse MG7 cells assessed as inhibition of LPS-induced IL1beta secretion at 3 uM; type: cell-based
[6] = Solubility of the compound by HPLC analysis; type: physicochemical
[7] = Stability in human plasma; type: ADME, cell-free
[8] = Stability in mouse plasma; type: ADME, cell-free
[9] = Lipophilicity, log D of the compound; type: physicochemical; details: octanol/water
[10] = Dissociation constant, pKa of the compound; type: physicochemical
[11] = Apparent permeability in human Caco2 cells; type: ADME, cell-based; details: caco-2
[12] = Drug metabolism in mouse liver microsomes; type: ADME, Microsome; details: read-out: Drug metabolism
[13] = Drug metabolism in human liver microsomes; type: ADME, Microsome; details: read-out: Drug metabolism
[14] = Clearance in human hepatocytes assessed per million cells; type: ADME, cell-based, Hepatocyte
[15] = target: Cytochrome P450 3A4 (Homo sapiens, UniProt P08684); experiment: Inhibition of CYP3A4 (unknown origin); type: ADME
Sequence of Cytochrome P450 3A4 (P08684 whole entry): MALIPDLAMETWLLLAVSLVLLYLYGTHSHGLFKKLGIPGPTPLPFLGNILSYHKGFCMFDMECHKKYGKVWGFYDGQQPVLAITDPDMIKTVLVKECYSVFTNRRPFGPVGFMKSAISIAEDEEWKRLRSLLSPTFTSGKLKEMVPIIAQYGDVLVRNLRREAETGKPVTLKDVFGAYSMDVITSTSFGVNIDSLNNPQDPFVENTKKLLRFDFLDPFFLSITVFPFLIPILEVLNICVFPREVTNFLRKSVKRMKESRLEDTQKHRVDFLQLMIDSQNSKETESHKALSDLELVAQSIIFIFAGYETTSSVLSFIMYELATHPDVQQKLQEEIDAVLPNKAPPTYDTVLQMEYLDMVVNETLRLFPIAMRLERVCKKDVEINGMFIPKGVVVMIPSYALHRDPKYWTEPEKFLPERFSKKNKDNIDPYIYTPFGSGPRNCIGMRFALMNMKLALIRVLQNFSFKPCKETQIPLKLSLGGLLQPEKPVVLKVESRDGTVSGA

[16] = target: Cytochrome P450 2D6 (Homo sapiens, UniProt P10635); experiment: Inhibition of CYP2D6 (unknown origin); type: ADME
Sequence of Cytochrome P450 2D6 (P10635 whole entry): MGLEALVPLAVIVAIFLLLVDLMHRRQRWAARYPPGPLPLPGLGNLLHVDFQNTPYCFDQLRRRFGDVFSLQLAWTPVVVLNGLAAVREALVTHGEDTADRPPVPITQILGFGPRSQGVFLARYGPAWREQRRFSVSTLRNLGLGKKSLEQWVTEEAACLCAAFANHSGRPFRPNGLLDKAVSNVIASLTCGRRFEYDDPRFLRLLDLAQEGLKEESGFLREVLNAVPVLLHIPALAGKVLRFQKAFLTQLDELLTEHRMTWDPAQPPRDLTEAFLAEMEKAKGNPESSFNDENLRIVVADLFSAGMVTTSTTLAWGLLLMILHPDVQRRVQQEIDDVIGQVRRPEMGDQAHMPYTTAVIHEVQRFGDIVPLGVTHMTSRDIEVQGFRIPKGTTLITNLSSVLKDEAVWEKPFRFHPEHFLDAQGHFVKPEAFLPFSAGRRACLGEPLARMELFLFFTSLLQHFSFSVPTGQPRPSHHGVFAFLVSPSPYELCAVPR

[17] = target: Cytochrome P450 2C9 (Homo sapiens, UniProt P11712); experiment: Inhibition of CYP2C9 (unknown origin); type: ADME
Sequence of Cytochrome P450 2C9 (P11712 whole entry): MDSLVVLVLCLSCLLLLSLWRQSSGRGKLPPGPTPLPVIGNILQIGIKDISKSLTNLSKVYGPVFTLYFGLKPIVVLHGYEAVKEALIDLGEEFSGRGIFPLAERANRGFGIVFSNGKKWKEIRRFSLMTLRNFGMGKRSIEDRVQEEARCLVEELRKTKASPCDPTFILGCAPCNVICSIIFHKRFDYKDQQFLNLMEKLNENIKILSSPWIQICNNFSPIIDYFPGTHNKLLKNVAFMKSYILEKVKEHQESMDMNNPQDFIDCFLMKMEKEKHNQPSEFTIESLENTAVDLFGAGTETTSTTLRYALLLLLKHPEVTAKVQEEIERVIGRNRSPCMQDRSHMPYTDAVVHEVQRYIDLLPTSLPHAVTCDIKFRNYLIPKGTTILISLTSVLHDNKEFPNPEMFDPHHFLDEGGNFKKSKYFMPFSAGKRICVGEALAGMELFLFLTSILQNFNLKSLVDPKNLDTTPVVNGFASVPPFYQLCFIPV

[18] = target: CYP450 (Homo sapiens, UniProt P04798+P05177+P05181+P08684+P10632+P10635+P11509+P11712+P13584+P20813+P20815+P20853+P24462+P24903+P33260+P33261+P51589+P78329+P98187+Q02928+Q08477+Q16678+Q16696+Q5TCH4+Q6VVX0+Q7Z449+Q8TAV3+Q96SQ9+Q9HB55); experiment: Induction of CYP450 (unknown origin); type: ADME, protein assay
[19] = target: T1, Voltage-gated inwardly rectifying potassium channel KCNH2 (Homo sapiens, UniProt Q12809); experiment: Activation of human ERG
T1 sequence (Q12809 whole entry): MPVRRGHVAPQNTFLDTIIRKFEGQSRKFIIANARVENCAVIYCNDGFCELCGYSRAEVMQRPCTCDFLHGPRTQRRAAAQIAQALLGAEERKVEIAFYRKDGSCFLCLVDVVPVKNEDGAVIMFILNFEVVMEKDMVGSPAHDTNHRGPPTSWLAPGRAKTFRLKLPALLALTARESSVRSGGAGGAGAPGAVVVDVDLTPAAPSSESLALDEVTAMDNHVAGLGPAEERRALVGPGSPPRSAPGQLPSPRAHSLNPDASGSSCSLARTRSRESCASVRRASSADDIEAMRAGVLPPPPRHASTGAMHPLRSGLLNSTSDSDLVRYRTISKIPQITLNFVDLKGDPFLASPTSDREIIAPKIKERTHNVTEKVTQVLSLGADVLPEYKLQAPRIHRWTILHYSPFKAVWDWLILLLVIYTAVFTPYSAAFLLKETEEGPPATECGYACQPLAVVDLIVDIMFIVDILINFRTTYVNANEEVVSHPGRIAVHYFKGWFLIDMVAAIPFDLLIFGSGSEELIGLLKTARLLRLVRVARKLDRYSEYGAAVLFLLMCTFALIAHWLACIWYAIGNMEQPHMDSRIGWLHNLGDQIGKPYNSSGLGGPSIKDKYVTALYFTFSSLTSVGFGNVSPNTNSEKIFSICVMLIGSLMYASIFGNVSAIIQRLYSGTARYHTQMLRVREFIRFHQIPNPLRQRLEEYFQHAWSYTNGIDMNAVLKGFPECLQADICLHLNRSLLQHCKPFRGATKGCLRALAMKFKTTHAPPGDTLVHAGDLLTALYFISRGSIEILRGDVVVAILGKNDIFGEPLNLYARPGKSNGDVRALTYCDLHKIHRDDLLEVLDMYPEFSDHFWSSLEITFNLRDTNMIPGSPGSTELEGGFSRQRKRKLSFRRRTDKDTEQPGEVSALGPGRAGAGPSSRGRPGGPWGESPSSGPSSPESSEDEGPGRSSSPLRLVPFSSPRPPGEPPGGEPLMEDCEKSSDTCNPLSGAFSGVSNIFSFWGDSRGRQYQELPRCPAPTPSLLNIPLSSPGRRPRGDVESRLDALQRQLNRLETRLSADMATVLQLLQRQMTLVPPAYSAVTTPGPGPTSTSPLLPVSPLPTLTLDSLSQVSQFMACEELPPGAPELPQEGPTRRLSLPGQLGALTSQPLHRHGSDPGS

[20] = Genotoxicity in Salmonella typhimurium by Ames test; type: toxicity; details: salmonella enterica subsp. enterica serovar typhimurium
[21] = Drug metabolism in human hepatocytes assessed as 3-(2-(4-chlorophenyl)imidazo[1,2-a]pyridin-6-yl)benzoic acid formation; type: ADME, cell-based, Hepatocyte
[22] = target: Nuclear receptor subfamily 4 group A member 2 (Mus musculus) (UniProt Q06219); experiment: Agonist activity at Nurr1 in co-culture of mouse primary neurons and microglia assessed as inhibition of LPS-induced neurotoxicity by measuring neuroprotection at 3 uM; design: scale not given: the % may be the effect or the level left
[23] = target: Nuclear receptor subfamily 4 group A member 2 (Mus musculus) (UniProt Q06219); experiment: Agonist activity at Nurr1 in co-culture of mouse primary neurons and microglia assessed as inhibition of LPS-induced neurotoxicity by measuring neuroprotection at 10 uM; design: scale not given: the % may be the effect or the level left
[24] = Ratio of AUC in C57BL/6 mouse brain to plasma at 3 mg/kg, iv administered as single dose; type: ADME, organism-based; details: read-out: Ratio AUC
[25] = target: T1, Voltage-gated inwardly rectifying potassium channel KCNH2; experiment: Inhibition of human ERG
[26] = Cmax in C57BL/6 mouse plasma at 3 mg/kg, iv administered as single dose; type: ADME, organism-based; design: dose 3 mg/kg, route intravenous
[27] = AUC in C57BL/6 mouse plasma at 3 mg/kg, iv administered as single dose; type: ADME, organism-based
[28] = Apparent half-life of the terminal disposition phase in C57BL/6 mouse plasma at 3 mg/kg, iv administered as single dose; type: ADME, organism-based; details: in vivo
[29] = Cmax in C57BL/6 mouse brain at 3 mg/kg, iv administered as single dose; type: ADME, organism-based; design: dose 3 mg/kg, route intravenous
[30] = AUC in C57BL/6 mouse brain at 3 mg/kg, iv administered as single dose; type: ADME, organism-based
[31] = Apparent half-life of the terminal disposition phase in C57BL/6 mouse brain at 3 mg/kg, iv administered as single dose; type: ADME, organism-based; details: read-out: t1/2 lambda z (converted)
[32] = Cmax in C57BL/6 mouse plasma at 10 mg/kg, po administered as single dose; type: ADME, organism-based; design: dose 10 mg/kg, route oral
[33] = Tmax in C57BL/6 mouse plasma at 10 mg/kg, po administered as single dose; type: ADME, organism-based
[34] = AUC in C57BL/6 mouse plasma at 10 mg/kg, po administered as single dose; type: ADME, organism-based
[35] = Apparent half-life of the terminal disposition phase in C57BL/6 mouse plasma at 10 mg/kg, po administered as single dose; type: ADME, organism-based; details: read-out: t1/2 lambda z (converted)
[36] = Ratio of AUC in C57BL/6 mouse brain to plasma at 10 mg/kg, po administered as single dose; type: ADME, organism-based; details: read-out: Ratio AUC
[37] = Cmax in C57BL/6 mouse brain at 10 mg/kg, po administered as single dose; type: ADME, organism-based; design: dose 10 mg/kg, route oral
[38] = AUC in C57BL/6 mouse brain at 10 mg/kg, po administered as single dose; type: ADME, organism-based
[39] = Apparent half-life of the terminal disposition phase in C57BL/6 mouse brain at 10 mg/kg, po administered as single dose; type: ADME, organism-based; details: read-out: t1/2 lambda z (converted)
[40] = test system: Cavia porcellus; experiment: Hemodynamic activity iv dosed anaesthetized guinea pig administered as single dose measured after 5 mins; type: ADME, organism-based; details: in vivo
[41] = Cardiotoxicity in iv dosed anaesthetized guinea pig assessed as electrocardiographic changes administered as single dose measured after 5 mins; type: toxicity, organism-based, Cavia porcellus; details: in vivo
[42] = Cardiotoxicity in iv dosed anaesthetized guinea pig assessed as electrophysiological changes administered as single dose measured after 5 mins; type: toxicity, organism-based, Cavia porcellus; details: in vivo
[43] = test system: Canis familiaris; experiment: Hemodynamic activity iv dosed anaesthetized dog administered as single dose measured after 5 mins; type: ADME, organism-based, Canis lupus familiaris; details: in vivo
[44] = Cardiotoxicity in iv dosed anaesthetized dog assessed as electrocardiographic changes administered as single dose measured after 5 mins; type: toxicity, organism-based, Canis lupus familiaris; details: in vivo
[45] = Cardiotoxicity in iv dosed anaesthetized dog assessed as electrophysiological changes administered as single dose measured after 5 mins; type: toxicity, organism-based, Canis lupus familiaris; details: in vivo
[46] = Drug level in anaesthetized guinea pig heart administered as single iv dose; type: ADME, organism-based, Cavia porcellus; details: in vivo, read-out: Drug uptake
[47] = Drug level in anaesthetized dog heart administered as single iv dose; type: ADME, organism-based, Canis lupus familiaris; details: in vivo, read-out: Drug uptake
[48] = test system: Rattus norvegicus; experiment: Antiinflammatory activity in Sprague-Dawley rat assessed as inhibition of LPS-induced TNFalpha release at 30 mg/kg; type: functional
[49] = species on record: Rattus norvegicus; experiment: Neuroprotective activity in poly(I:C)-induced Sprague-Dawley rat Parkinson's disease lesion model assessed as reduction in brain gliosis; type: functional, organism-based
[50] = species on record: Rattus norvegicus; experiment: Neuroprotective activity in poly(I:C)-induced Sprague-Dawley rat Parkinson's disease lesion model assessed as reduction in IL6 level; type: functional, organism-based
[51] = Drug level in human hepatocytes treated with (3-(2-(4-chlorophenyl)imidazo[1,2-a]pyridin-6-yl)phenyl)methanol; type: ADME, cell-based, Hepatocyte

Emax [1]: 240%
EC50 [2]: 0.001 µM
Emax [3]: 239%
EC50 [3]: 0.045 to 0.075 µM
Activity [4]: 188 to 313%
inhibition [5]: 58%
solubility [6]: < 1 µM
Stability [7]: Stable
Stability [8]: Stable
logD [9]: 2.95
pKa [10]: 5.16
permeability [11]: Permeable
metabolised [12]: 8%
metabolised [13]: 22%
CLH [14]: 0.42 mL/h
IC50 [15]: > 10 µM
IC50 [16]: > 10 µM
IC50 [17]: 8.6 µM
Emax [18]: < 20%
Drug metabolism [21]: Metabolite_Detected
SMILES: OCc1cccc(-c2ccc3nc(-c4ccc(Cl)cc4)cn3c2)c1
EC50 [19]: 0.9 µM
Activity [20]: Non-Toxic
Activity [22]: 37%
Activity [23]: 65%

Kp [24]: 0.7
EC50 [3]: 0.218 µM
Activity [4]: 188 to 284%
inhibition [5]: 28 to 46%
CLH [14]: 0.051 mL/h
Cmax [26]: 4870 ng/mL
AUC [27]: 20600 ng·h/mL
t1/2 lambda z [28]: 98.4 h
Cmax [29]: 2630 ng/mL
AUC [30]: 15000 ng·h/mL
half-life [31]: 91.2 h
Cmax [32]: 4170 ng/mL
Tmax [33]: 24 h
AUC [34]: 70300 ng·h/mL
half-life [35]: 194 h
Kp [36]: 0.8
Cmax [37]: 3080 ng/mL
AUC [38]: 55600 ng·h/mL
half-life [39]: 197 h
concentration [46]: ≤ 17 µM
concentration [47]: 40 µM
SMILES: CC(C)(O)c1cccc(-c2ccc3nc(-c4ccc(Cl)cc4)cn3c2)c1
IC50 [25]: 1.5 µM
Activity [40]: Non-Toxic
Activity [41]: Non-Toxic
Activity [42]: Non-Toxic
Activity [43]: Non-Toxic
Activity [44]: Non-Toxic
Activity [45]: Non-Toxic
inhibition in vivo at 30 mg/kg [48]: 47%
Activity [49]: Active
Activity [50]: Active
Activity [22]: 86 to 99%

Drug metabolism [51]: Metabolite_Detected
SMILES: O=C(O)c1cccc(-c2ccc3nc(-c4ccc(Cl)cc4)cn3c2)c1
